Test results from ChEMBL document CHEMBL5346883, “Discovery and pharmacological characterization of a novel benzimidazole TRPV4 antagonist with cyanocyclobutyl moiety” (Eur J Med Chem, 2023).
pIC50: −log10 of the molar value.

Experiments:
[1] = Cytotoxicity against human HUVEC cells assessed as reduction in cell viability; assay type: toxicity, cell-based
[2] = target: T1, Transient receptor potential cation channel subfamily V member 4 (Homo sapiens, UniProt Q9HBA0); test: Antagonist activity at TRPV4 (unknown origin) expressed in Flp-In-CHO cells assessed as inhibition of GSK1016790A induced Ca2+ influx by calcium imaging method; assay type: cell-based
[3] = target: T1, Transient receptor potential cation channel subfamily V member 4; test: Antagonist activity at human TRPV4
[4] = tested on: Mus musculus; test: Antiinflammatory activity in LPS-induced acute lung injury mouse model assessed as pathological score at 1 mg/kg, ip by hematoxylin and eosin staining based analysis; assay type: functional
[5] = tested on: Mus musculus; test: Antiinflammatory activity in LPS-induced acute lung injury mouse model assessed as BALF protein concentration at 1 mg/kg, ip; assay type: functional

T1 sequence (Q9HBA0 whole entry): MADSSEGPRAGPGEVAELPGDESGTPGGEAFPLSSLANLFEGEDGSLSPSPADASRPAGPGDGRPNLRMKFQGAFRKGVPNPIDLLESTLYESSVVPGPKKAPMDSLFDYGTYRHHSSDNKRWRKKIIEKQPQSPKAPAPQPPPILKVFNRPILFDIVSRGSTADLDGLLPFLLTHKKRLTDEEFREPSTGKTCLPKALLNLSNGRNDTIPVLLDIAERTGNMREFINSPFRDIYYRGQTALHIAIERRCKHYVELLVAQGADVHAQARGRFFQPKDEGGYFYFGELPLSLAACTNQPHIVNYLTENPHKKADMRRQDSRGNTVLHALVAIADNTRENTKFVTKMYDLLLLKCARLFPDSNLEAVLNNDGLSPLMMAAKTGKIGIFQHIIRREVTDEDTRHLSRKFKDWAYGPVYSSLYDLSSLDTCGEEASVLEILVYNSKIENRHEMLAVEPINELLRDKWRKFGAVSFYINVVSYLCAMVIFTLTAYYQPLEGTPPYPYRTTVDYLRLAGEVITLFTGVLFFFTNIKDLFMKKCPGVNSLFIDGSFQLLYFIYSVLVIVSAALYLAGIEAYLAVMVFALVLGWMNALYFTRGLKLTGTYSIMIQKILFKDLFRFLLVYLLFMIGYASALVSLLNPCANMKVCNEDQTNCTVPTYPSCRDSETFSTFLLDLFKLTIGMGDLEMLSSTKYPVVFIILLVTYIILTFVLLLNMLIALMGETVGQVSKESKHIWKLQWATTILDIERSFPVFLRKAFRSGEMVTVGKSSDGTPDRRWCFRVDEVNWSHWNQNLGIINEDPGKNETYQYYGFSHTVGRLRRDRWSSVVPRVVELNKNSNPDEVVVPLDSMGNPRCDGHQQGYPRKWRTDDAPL

Row | SMILES | CC50 [1] [nM] | pIC50 [2] | pIC50 [3] | Activity [4] | Activity [5]
1 | CC(=O)Nc1c(Cl)c(Cl)cc2c1nc(NC(C)C)n2C1CCN(c2ccc(C3(C#N)CCCC3)cc2)CC1 | > 100000 |  |  |  | 
2 | CC(C)C[C@H](NC(=O)c1cc2ccccc2s1)C(=O)N1CCN(C(=O)[C@H](CO)NS(=O)(=O)c2ccc(Cl)cc2Cl)CC1 |  | 6.92 |  |  | 
3 | CC(=O)Nc1c(Cl)c(Cl)cc2c1nc(NC(C)C)n2C1CCN(c2ccc(C3(C#N)CCC3)cc2)CC1 | > 100000 |  |  |  | 
4 | Cc1c(C(=O)Nc2cccc(C(F)(F)F)c2)cc(-c2ccccc2)n1CCCN1CCOCC1 |  | 7.13 | 6.69 | 5.4 | 1.5
